Laboratory results: patent publication US7179816B2, “Chemical derivatives and their application as antitelomerase agents” (Aventis Pharma S.A., priority 2001, dated 2007)

How the values were obtained:
[1] = tested on: G-quadruplex of oligonucleotide GGGTTAGGGTTAGGGTTAGGG (3.5 repeats of the human telomeric motif); assay: G-quadruplex stabilisation, fluorescence Tm of FAM+DABCYL oligonucleotide; assay type: binding; conditions: test product 1 μM, oligonucleotide 0.2 μM, 0.1 M LiCl, 10 mM cacodylate buffer pH 7.6; reference Tm 44° C.
Description: The G-quadruplex stabilizing activity may be determined by a method using the formation of a complex with fluorescein, as described below.
All the oligonucleotides, modified or otherwise, were synthesized by Eurogentec SA, Seraing, Belgium. The oligonucleotide FAM+DABCYL carries the catalog reference OL-0371–0802. It has the sequence: […] (SEQ ID NO:1) corresponding to 3.5 repeats of the human telomeric motif (strand rich in G). The fluorescein is chemically attached to the 5′ end, and the DABCYL to the 3′ end, as described by Eurogentec. The concentration of the samples is checked by spectrophotometry, recording the absorbance spectrum between 220 and 700 nm and using the molar extinction coefficient provided by the supplier. […]
All the measurements of fluorescence were carried out on a Spex Fluorolog DM1B apparatus, using an excitation line width of 1.8 nm and an emission line width of 4.5 nm. […] The oligonucleotide alone was analyzed at 20, 30, 40, 50, 60, 70 and 80° C. The emission spectra are recorded using an excitation wavelength of 470 nm. The excitation spectra are recorded using either 515 nm or 588 nm as emission wavelength. […] A high extinction (80–90%) of the fluorescence of fluorescein at room temperature is observed, in agreement with an intramolecular folding of the oligonucleotide at 20° C. in the form of a G-quadruplex. […]

[2] = tested on: human telomerase (extract of HL60 cells enriched in telomerase activity); assay: TRAP assay of telomerase activity (extension of oligonucleotide TS, PCR amplification); assay type: biochemical; conditions: compounds at 10, 1, 0.1 and 0.01 μg/ml
Method: The antitelomerase biological activity is determined by the following experimental protocol:
Preparation of the Extract Enriched in Human Telomerase Ectivity:
The leukemia line HL60 is obtained from ATCC (American Type Culture Collection, Rockville USA). The cells are cultured in suspension in RPMI 1640 medium containing L-Glutamine at 2 mM, Penicillin 200 U/ml, streptomycin 200 μg/ml, gentamycin 50 μg/ml and supplemented with 10% heat-inactivated fetal calf serum.
An aliquot of 10^5 cells is centrifuged at 3000×G and the supernatant discarded. […]
The samples are then analyzed by electrophoresis on 12% acrylamide gel in a 1×TBE buffer for 1 hour at a voltage of 200 volts, with the aid of a Novex electrophoresis system. […]
The analysis and the quantification of the reaction products are carried out with the aid of an InstantImager apparatus (Pacard).
For each compound concentration tested, the results are expressed as percentage inhibition of the reaction and calculated from the untreated enzymatic control and from the enzyme-free sample (blank) according to the following formula: (Compound Value−blank value/enzymatic control value−blank value)×100. […]
A compound is considered to be active as an antitelomerase agent when the quantity inhibiting 50% of the telomerase reaction is less than 5 μM.

| Compound | G-4 ΔTm [1] | IC50 [2] |
| --- | --- | --- |
| CSc1nc(NCCN(C)C)nc(Nc2ccc3nc(C)cc(N)c3c2)n1 [Example 1-1, N6-[6-(2-dimethylaminoethylamino)-4-methylsulfanyl-[1,3,5]triazin-2-yl]-2-methylquinoline-4,6-diamine] | 6 °C | 790 nM |
| N6-[(6-(3-dimethylaminopropylamino)-4-diethylamino-[1,3,5]triazin-3-yl]-2-methylquinoline-4,6-diamine [Example 2-1] | 7.9 °C | 900 nM |
